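How tested: cells in 96-well plates exposed to compound for 48 hours at five concentrations. GI50 is the concentration that inhibits growth by half. At the TGI there is no net growth.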
Assays:
Assay in all cases: DTP human tumour cell line panel, 48 h
[1] = test system: 786-0 renal
[2] = test system: A498 renal
[3] = test system: A549 NSCLC
[4] = test system: ACHN renal
[5] = test system: BT-549 breast
[6] = test system: CAKI-1 renal
[7] = test system: CCRF-CEM leukemia
[8] = test system: COLO 205 colon
[9] = test system: DU-145 prostate
[10] = test system: HCC-2998 colon
[11] = test system: HCT-116 colon
[12] = test system: HCT-15 colon
[13] = test system: HL-60(TB) leukemia
[14] = test system: HOP-62 NSCLC
[15] = test system: HOP-92 NSCLC
[16] = test system: HS 578T breast
[17] = test system: HT29 colon
[18] = test system: IGROV1 ovarian
[19] = test system: K-562 leukemia
[20] = test system: KM12 colon
[21] = test system: LOX IMVI melanoma
[22] = test system: M14 melanoma
[23] = test system: MALME-3M melanoma
[24] = test system: MCF7 breast
[25] = test system: MDA-MB-231 breast
[26] = test system: MDA-MB-435
[27] = test system: MOLT-4 leukemia
[28] = test system: NCI-H226 lung
[29] = test system: NCI-H23 lung
[30] = test system: NCI-H460 lung
[31] = test system: NCI-H522 lung
[32] = test system: NCI/ADR-RES ovarian
[33] = test system: OVCAR-3 ovarian
[34] = test system: OVCAR-4 ovarian
[35] = test system: OVCAR-5 ovarian
[36] = test system: OVCAR-8 ovarian
[37] = test system: PC-3 prostate
[38] = test system: RPMI-8226 leukemia
[39] = test system: RXF 393 renal
[40] = test system: SF-268 CNS
[41] = test system: SF-295 CNS
[42] = test system: SF-539 CNS
[43] = test system: SK-MEL-2 melanoma
[44] = test system: SK-MEL-28 melanoma
[45] = test system: SK-MEL-5 melanoma
[46] = test system: SK-OV-3 ovarian
[47] = test system: SN12C renal
[48] = test system: SNB-19 CNS
[49] = test system: SNB-75 CNS
[50] = test system: SR leukemia
[51] = test system: SW-620 colon
[52] = test system: T-47D breast
[53] = test system: TK-10 renal
[54] = test system: U251 CNS
[55] = test system: UACC-257 melanoma
[56] = test system: UACC-62 melanoma
[57] = test system: UO-31 renal

## CS(=O)(=O)Nc1ccc(Nc2c3ccccc3nc3cc([N+](=O)[O-])ccc23)cc1
[1]
  GI50: 1390 nM
  TGI: 10600 nM
[2]
  GI50: 1280 nM
  TGI: 12500 nM
[3]
  GI50: 317 nM
  TGI: 12000 nM
[4]
  GI50: 1420 nM
  TGI: 6740 nM
[5]
  GI50: 2290 nM
  TGI: 9320 nM
[6]
  GI50: 2010 nM
  TGI: 7430 nM
[7]
  GI50: 352 nM
  TGI: 2790 nM
[8]
  GI50: 1430 nM
  TGI: 6060 nM
[9]
  GI50: 296 nM
  TGI: 6500 nM
[10]
  GI50: 1620 nM
  TGI: 4240 nM
[11]
  GI50: 1100 nM
  TGI: 6160 nM
[12]
  GI50: 1380 nM
  TGI: 4010 nM
[13]
  GI50: 1690 nM
  TGI: 5880 nM
[14]
  GI50: 399 nM
  TGI: 3790 nM
[15]
  GI50: 590 nM
  TGI: 3740 nM
[16]
  GI50: 2420 nM
  TGI: 13400 nM
[17]
  GI50: 2140 nM
  TGI: 6130 nM
[18]
  GI50: 1630 nM
  TGI: 5170 nM
[19]
  GI50: 1310 nM
  TGI: 6960 nM
[20]
  GI50: 854 nM
  TGI: 3760 nM
[21]
  GI50: 922 nM
  TGI: 2780 nM
[22]
  GI50: 1420 nM
  TGI: 5810 nM
[23]
  GI50: 1440 nM
  TGI: 4080 nM
[24]
  GI50: 51.1 nM
  TGI: 2720 nM
[25]
  GI50: 2100 nM
  TGI: 6100 nM
[26]
  GI50: 3320 nM
  TGI: 9060 nM
[27]
  GI50: 235 nM
  TGI: 1190 nM
[28]
  GI50: 1260 nM
  TGI: 6950 nM
[29]
  GI50: 1690 nM
  TGI: 5470 nM
[30]
  GI50: 41 nM
  TGI: 2750 nM
[31]
  GI50: 1270 nM
  TGI: 2800 nM
[32]
  GI50: 10000 nM
  TGI: 26500 nM
[33]
  GI50: 2050 nM
  TGI: 5870 nM
[34]
  GI50: 2900 nM
  TGI: 10400 nM
[35]
  GI50: 7940 nM
  TGI: 23100 nM
[36]
  GI50: 1950 nM
  TGI: 9530 nM
[37]
  GI50: 1590 nM
  TGI: 11800 nM
[38]
  GI50: 737 nM
  TGI: 4310 nM
[39]
  GI50: 1890 nM
  TGI: 4860 nM
[40]
  GI50: 615 nM
  TGI: 7030 nM
[41]
  GI50: 1420 nM
  TGI: 7770 nM
[42]
  GI50: 2230 nM
  TGI: 13000 nM
[43]
  GI50: 3460 nM
  TGI: 8850 nM
[44]
  GI50: 2450 nM
  TGI: 7760 nM
[45]
  GI50: 1100 nM
  TGI: 4370 nM
[46]
  GI50: 3500 nM
  TGI: 15100 nM
[47]
  GI50: 807 nM
  TGI: 8430 nM
[48]
  GI50: 1610 nM
  TGI: 14900 nM
[49]
  GI50: 1720 nM
  TGI: 11800 nM
[50]
  GI50: 83.7 nM
  TGI: 3160 nM
[51]
  GI50: 1090 nM
  TGI: 6000 nM
[52]
  GI50: 107 nM
  TGI: 2230 nM
[53]
  GI50: 3380 nM
  TGI: 11900 nM
[54]
  GI50: 911 nM
  TGI: 11300 nM
[55]
  GI50: 1820 nM
  TGI: 6440 nM
[56]
  GI50: 1320 nM
  TGI: 6310 nM
[57]
  GI50: 2390 nM
  TGI: 13600 nM
